Source: PubChem BioAssay AID1963958 (Molecular Pharmacology Branch, DTP, NCI, 2024)

System: MDA-MB-231 multicell spheroids, viability
Test: Anticancer human tumor MDA-MB-231 cell line growth inhibition [PI3K];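 note: spheroids exposed to agents for seven days before reading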;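 for viability, T/C: percent of vehicle control luminescence with DMSO treated spheroids as 100%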
Details: for IC50: curve of first compound; for viability, T/C: stronger effect = lower value
In short: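 We assembled tumor spheroids that included a stromal compartment of HUVEC and MSCs, then exposed them to targeted agents alone and together with PI3K pathway inhibitors. Concentration series descended by half-log from clinically achievable Cmax levels. Viability served as the endpoint.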

Structure (SMILES): CC(C)NCC(C(=O)N1CCN(c2ncnc3c2C(C)CC3O)CC1)c1ccc(Cl)cc1 (configuration not stated) + Cc1nc(NC(=O)N2CCCC2C(N)=O)sc1-c1ccnc(C(C)(C)C(F)(F)F)c1
- IC50 (second compound 0.0316 µM): 7.63 µM
- IC50 (second compound 0.1 µM): 6.69 µM
- IC50 (second compound 0.316 µM): 4.73 µM
- IC50 (second compound 1 µM): 4.4 µM
- IC50 (second compound 3.16 µM): 4.09 µM
- IC50 (second compound 10 µM): 3.7 µM
- viability, T/C (second compound 0.0316 µM, first compound 0.0316 µM): 95.8%
- viability, T/C (second compound 0.0316 µM, first compound 0.1 µM): 95.9%
- viability, T/C (second compound 0.0316 µM, first compound 0.316 µM): 82.7%
- viability, T/C (second compound 0.0316 µM, first compound 1 µM): 83.5%
- viability, T/C (second compound 0.0316 µM, first compound 3.16 µM): 66.9%
- viability, T/C (second compound 0.0316 µM, first compound 10 µM): 44.2%
- viability, T/C (second compound 0.1 µM, first compound 0.0316 µM): 84.8%
- viability, T/C (second compound 0.1 µM, first compound 0.1 µM): 79.9%
- viability, T/C (second compound 0.1 µM, first compound 0.316 µM): 71.4%
- viability, T/C (second compound 0.1 µM, first compound 1 µM): 73.5%
- viability, T/C (second compound 0.1 µM, first compound 3.16 µM): 64%
- viability, T/C (second compound 0.1 µM, first compound 10 µM): 42.5%
- viability, T/C (second compound 0.316 µM, first compound 0.0316 µM): 72.6%
- viability, T/C (second compound 0.316 µM, first compound 0.1 µM): 77.8%
- viability, T/C (second compound 0.316 µM, first compound 0.316 µM): 73.4%
- viability, T/C (second compound 0.316 µM, first compound 1 µM): 63.4%
- viability, T/C (second compound 0.316 µM, first compound 3.16 µM): 55%
- viability, T/C (second compound 0.316 µM, first compound 10 µM): 42.6%
- viability, T/C (second compound 1 µM, first compound 0.0316 µM): 70.7%
- viability, T/C (second compound 1 µM, first compound 0.1 µM): 66.6%
- viability, T/C (second compound 1 µM, first compound 0.316 µM): 63.7%
- viability, T/C (second compound 1 µM, first compound 1 µM): 60.4%
- viability, T/C (second compound 1 µM, first compound 3.16 µM): 55.6%
- viability, T/C (second compound 1 µM, first compound 10 µM): 40.4%
- viability, T/C (second compound 3.16 µM, first compound 0.0316 µM): 73.7%
- viability, T/C (second compound 3.16 µM, first compound 0.1 µM): 66.4%
- viability, T/C (second compound 3.16 µM, first compound 0.316 µM): 64.3%
- viability, T/C (second compound 3.16 µM, first compound 1 µM): 60.6%
- viability, T/C (second compound 3.16 µM, first compound 3.16 µM): 54.3%
- viability, T/C (second compound 3.16 µM, first compound 10 µM): 40.4%
- viability, T/C (second compound 10 µM, first compound 0.0316 µM): 68.7%
- viability, T/C (second compound 10 µM, first compound 0.1 µM): 65.5%
- viability, T/C (second compound 10 µM, first compound 0.316 µM): 61.3%
- viability, T/C (second compound 10 µM, first compound 1 µM): 59.9%
- viability, T/C (second compound 10 µM, first compound 3.16 µM): 53.4%
- viability, T/C (second compound 10 µM, first compound 10 µM): 37.8%
